Data reported in US12083118B2, “Substituted 1,1′-biphenyl compounds, analogues thereof, and methods using same” (Arbutus Biopharma Corporation, priority 2018, dated 2024).

Target: PD-L1 (Homo sapiens (Human), UniProt Q9NZQ7)
Assay: HTRF Assay (PD-1/PD-L1)
Type: binding
Conditions: PD-L1 His protein 6 nM, PD-1 Fc protein 6 nM
Description: PD-L1 small molecule inhibitors were diluted by 3-fold starting from 20 μM and a final concentration of 0.001 μM and added to the well. PD-1 Fc protein was added at the final concentration of 6 nM. PD-L1 His protein, PD-L1 small molecule inhibitors, and PD1 Fc proteins were added to the well in this order, with each 5 μl volume, and were incubated for 15 minutes at room temperature. […] The plate was read using PerkinElmer Envision plate reader and data was analyzed by Prism 6 software. Results are illustrated in Table 1

Sequence of PD-L1 (Q9NZQ7 19-238): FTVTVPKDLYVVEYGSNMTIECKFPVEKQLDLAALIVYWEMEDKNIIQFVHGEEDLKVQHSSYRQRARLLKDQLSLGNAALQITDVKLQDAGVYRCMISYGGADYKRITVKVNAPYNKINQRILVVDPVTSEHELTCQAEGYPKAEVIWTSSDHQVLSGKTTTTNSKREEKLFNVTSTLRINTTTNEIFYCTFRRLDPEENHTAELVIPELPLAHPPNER

| Structure (SMILES) | IC50 |
| --- | --- |
| Cc1c(COc2cc(OCc3cncc(C#N)c3)c(CN3CCCC[C@H]3C(=O)O)cc2Cl)cccc1-c1cccc(COc2cc(OCc3cncc(C#N)c3)c(CN3CCCC[C@H]3C(=O)O)cc2Cl)c1C [Example 27, (2S)-1-[[4-[[3-[3-[[4-[[(2S)-2-Carboxy-1-piperidyl]methyl]-2-chloro-5-[(5-cyano-3-pyridyl)methoxy]phenoxy]methyl]-2-methyl-phenyl]-2-methyl-phenyl]methoxy]-5-chloro-2-[(5-cyano-3-pyridyl)methoxy]phenyl]methyl] piperidine-2-carboxylic acid] | 1.3 nM |
| COc1cc(OCc2cccc(-c3cccc(COc4cc(OC)c(CN5CCCC[C@H]5C(=O)O)cc4Cl)c3C)c2C)c(Cl)cc1CN1CCCC[C@H]1C(=O)O [Example 29, (2S)-1-[[4-[[3-[3-[[4-[[(2S)-2-carboxy-1-piperidyl]methyl]-2-chloro-5-methoxy-phenoxy]methyl]-2-methyl-phenyl]-2-methyl-phenyl]methoxy]-5-chloro-2-methoxy-phenyl]methyl]piperidine-2-carboxylic acid] | 1.2 nM |
